Assay results: US20250042875A1, “PESTICIDALLY ACTIVE PYRIDAZINONE COMPOUNDS” (SYNGENTA CROP PROTECTION AG, priority 2021, published 2025)

Key:
Type in all cases: in vivo
Spodoptera littoralis = experiment: Activity against Spodoptera littoralis (Egyptian cotton leaf worm), cotton leaf discs, L1 larvae; conditions: foliar, 72 h, application rate 200 ppm, 3 days after infestation, read-out: control in at least one of the three categories (mortality, anti-feedant effect, or growth inhibition)
Experimental: Example B8: Activity Against Spodoptera littoralis (Egyptian Cotton Leaf Worm)
Cotton leaf discs were placed onto agar in 24-well microtiter plates and sprayed with aqueous test solutions prepared from 10′000 ppm DMSO stock solutions. After drying the leaf discs were infested with five L1 larvae. The samples were assessed for mortality, anti-feeding effect, and growth inhibition in comparison to untreated samples 3 days after infestation. Control of Spodoptera littoralis by a test sample is given when at least one of the categories mortality, anti-feedant effect, and growth inhibition is higher than the untreated sample.

Diabrotica balteata = experiment: Activity against Diabrotica balteata (corn root worm), maize sprouts, L2 larvae; conditions: 96 h, application rate 200 ppm, 4 days after infestation, read-out: control in at least one of the two categories (mortality or growth inhibition)
Experimental: Example B2: Activity Against Diabrotica Balteata (Corn Root Worm)
Maize sprouts placed onto an agar layer in 24-well microtiter plates were treated with aqueous test solutions prepared from 10′000 ppm DMSO stock solutions by spraying. After drying, the plates were infested with L2 larvae (6 to 10 per well). The samples were assessed for mortality and growth inhibition in comparison to untreated samples 4 days after infestation.

Chilo suppressalis = experiment: Activity against Chilo suppressalis (striped rice stemborer), artificial diet, L2 larvae; conditions: 144 h, application rate 200 ppm, 6 days after infestation, read-out: control in at least one of the three categories (mortality, anti-feedant effect, or growth inhibition)
Experimental: Example B1: Activity Against Chilo suppressalis (Striped Rice Stemborer)
24-well microtiter plates with artificial diet were treated with aqueous test solutions prepared from 10′000 ppm DMSO stock solutions by pipetting. After drying, the plates were infested with L2 larvae (6-8 per well). The samples were assessed for mortality, anti-feeding effect, and growth inhibition in comparison to untreated samples 6 days after infestation. Control of Chilo suppressalis by a test sample is given when at least one of the categories mortality, anti-feedant effect, and growth inhibition is higher than the untreated sample.

Myzus persicae = experiment: Activity against Myzus persicae (green peach aphid), intrinsic activity; conditions: 120 h, test rate 12 ppm, 5 days after infestation
Text: Example B6: Activity Against Myzus persicae (Green Peach Aphid). Intrinsic Activity
Test compounds prepared from 10′000 ppm DMSO stock solutions were applied by pipette into 24-well microtiter plates and mixed with sucrose solution. The plates were closed with a stretched Parafilm. A plastic stencil with 24 holes was placed onto the plate and infested pea seedlings were placed directly on the Parafilm. The infested plate was closed with a gel blotting paper and another plastic stencil and then turned upside down. The samples were assessed for mortality 5 days after infestation.

Plutella xylostella = experiment: Activity against Plutella xylostella (diamond back moth), artificial diet, eggs; conditions: 192 h, application rate 200 ppm, 8 days after infestation, read-out: control in at least one of the two categories (mortality or growth inhibition)
Experimental: Example B7: Activity Against Plutella xylostella (Diamond Back Moth)
24-well microtiter plates with artificial diet were treated with aqueous test solutions prepared from 10′000 ppm DMSO stock solutions by pipetting. After drying, Plutella eggs were pipetted through a plastic stencil onto a gel blotting paper and the plate was closed with it. The samples were assessed for mortality and growth inhibition in comparison to untreated samples 8 days after infestation.

Euschistus heros = experiment: Activity against Euschistus heros (neotropical brown stink bug), soybean leaves, N2 nymphs; conditions: 120 h, application rate 200 ppm, 5 days after infestation, read-out: effect in at least one of the two categories (mortality or growth inhibition)
Experimental: Example B3: Activity Against Euschistus heros (Neotropical Brown Stink Bug)
Soybean leaves on agar in 24-well microtiter plates were sprayed with aqueous test solutions prepared from 10′000 ppm DMSO stock solutions. After drying the leaves were infested with N2 nymphs. The samples were assessed for mortality and growth inhibition in comparison to untreated samples 5 days after infestation.

CC(NC(=O)c1cc(C(F)(F)F)cc(C(F)(F)F)c1)c1nccnc1-c1ccc(=O)n(C)n1 (stereo not shown) [P3, N-[1-[3-(1-methyl-6-oxo-pyridazin-3-yl)pyrazin-2-yl]ethyl]-3,5-bis(trifluoromethyl)benzamide]
≥ 80%: percent control (mortality, anti-feedant effect or growth inhibition) at 200 ppm (Spodoptera littoralis) | percent control (mortality or growth inhibition) at 200 ppm (Diabrotica balteata) | percent control (mortality, anti-feedant effect or growth inhibition) at 200 ppm (Chilo suppressalis) | mortality at 12 ppm (Myzus persicae) | percent control (mortality or growth inhibition) at 200 ppm (Plutella xylostella)

C[C@H](NC(=O)c1cc(Cl)cc(C(F)(F)F)c1)c1ncnn1-c1ccc(=O)n(C)n1 [P4, 3-chloro-N-[(1S)-1-[2-(1-methyl-6-oxo-pyridazin-3-yl)-1,2,4-triazol-3-yl]ethyl]-5-(trifluoromethyl) benzamide]
≥ 80%: percent control (mortality, anti-feedant effect or growth inhibition) at 200 ppm (Spodoptera littoralis) | percent control (mortality or growth inhibition) at 200 ppm (Diabrotica balteata) | percent control (mortality, anti-feedant effect or growth inhibition) at 200 ppm (Chilo suppressalis) | percent effect (mortality or growth inhibition) at 200 ppm (Euschistus heros) | mortality at 12 ppm (Myzus persicae) | percent control (mortality or growth inhibition) at 200 ppm (Plutella xylostella)

CC(NC(=O)c1cc(Cl)cc(I)c1)c1nccnc1-c1ccc(=O)n(C)n1 (stereo not shown) [P12, 3-chloro-5-iodo-N-[1-[3-(1-methyl-6-oxo-pyridazin-3-yl)pyrazin-2-yl]ethyl]benzamide]
≥ 80%: percent control (mortality, anti-feedant effect or growth inhibition) at 200 ppm (Spodoptera littoralis) | percent control (mortality or growth inhibition) at 200 ppm (Diabrotica balteata) | percent control (mortality, anti-feedant effect or growth inhibition) at 200 ppm (Chilo suppressalis) | mortality at 12 ppm (Myzus persicae) | percent control (mortality or growth inhibition) at 200 ppm (Plutella xylostella)

CC(NC(=O)c1cc(Br)cc(Br)c1)c1nccnc1-c1ccc(=O)n(C)n1 (stereo not shown) [P13, 3,5-dibromo-N-[1-[3-(1-methyl-6-oxo-pyridazin-3-yl)pyrazin-2-yl]ethyl]benzamide]
≥ 80%: percent control (mortality, anti-feedant effect or growth inhibition) at 200 ppm (Spodoptera littoralis) | percent control (mortality or growth inhibition) at 200 ppm (Diabrotica balteata) | percent control (mortality, anti-feedant effect or growth inhibition) at 200 ppm (Chilo suppressalis) | mortality at 12 ppm (Myzus persicae) | percent control (mortality or growth inhibition) at 200 ppm (Plutella xylostella)

CC(NC(=O)c1cc(Br)cc(I)c1)c1nccnc1-c1ccc(=O)n(C)n1 (stereo not shown) [P15, 3-bromo-5-iodo-N-[1-[3-(1-methyl-6-oxo-pyridazin-3-yl)pyrazin-2-yl]ethyl]benzamide]
≥ 80%: percent control (mortality, anti-feedant effect or growth inhibition) at 200 ppm (Spodoptera littoralis) | percent control (mortality, anti-feedant effect or growth inhibition) at 200 ppm (Chilo suppressalis) | mortality at 12 ppm (Myzus persicae) | percent control (mortality or growth inhibition) at 200 ppm (Plutella xylostella)

C[C@H](NC(=O)c1cc(Cl)cc(S(=O)(=O)C(F)(F)F)c1)c1ncnn1C1=NN(C)C(=O)CC1 [P21, 3-chloro-N-[(1S)-1-[2-(1-methyl-6-oxo-4,5-dihydropyridazin-3-yl)-1,2,4-triazol-3-yl]ethyl]-5-(trifluoromethylsulfonyl) benzamide]
≥ 80%: percent control (mortality, anti-feedant effect or growth inhibition) at 200 ppm (Spodoptera littoralis) | percent control (mortality or growth inhibition) at 200 ppm (Diabrotica balteata) | percent control (mortality, anti-feedant effect or growth inhibition) at 200 ppm (Chilo suppressalis) | percent effect (mortality or growth inhibition) at 200 ppm (Euschistus heros) | mortality at 12 ppm (Myzus persicae) | percent control (mortality or growth inhibition) at 200 ppm (Plutella xylostella)

C[C@H](NC(=O)c1cc(C(F)(F)F)cc(C2(C#N)CC2)c1)c1ncnn1-c1ccc(=O)n(C)n1 [P25, 3-(1-cyanocyclopropyl)-N-[(1S)-1-[2-(1-methyl-6-oxo-pyridazin-3-yl)-1,2,4-triazol-3-yl]ethyl]-5-(trifluoromethyl)benzamide]
≥ 80%: percent control (mortality, anti-feedant effect or growth inhibition) at 200 ppm (Spodoptera littoralis) | percent control (mortality or growth inhibition) at 200 ppm (Diabrotica balteata) | percent control (mortality, anti-feedant effect or growth inhibition) at 200 ppm (Chilo suppressalis) | percent effect (mortality or growth inhibition) at 200 ppm (Euschistus heros) | mortality at 12 ppm (Myzus persicae) | percent control (mortality or growth inhibition) at 200 ppm (Plutella xylostella)

CC(NC(=O)c1cc(Cl)cc(S(=O)(=O)C(F)(F)F)c1)c1nccnc1-c1ccc(=O)n(C)n1 (stereo not shown) [P31, 3-chloro-N-[1-[3-(1-methyl-6-oxo-pyridazin-3-yl)pyrazin-2-yl]ethyl]-5-(trifluoromethylsulfonyl) benzamide]
≥ 80%: percent control (mortality, anti-feedant effect or growth inhibition) at 200 ppm (Spodoptera littoralis) | percent control (mortality, anti-feedant effect or growth inhibition) at 200 ppm (Chilo suppressalis) | mortality at 12 ppm (Myzus persicae) | percent control (mortality or growth inhibition) at 200 ppm (Plutella xylostella)

C[C@H](NC(=O)c1cc(I)cc(C(F)(F)F)c1)c1ncnn1-c1ccc(=O)n(C)n1 [P36, 3-iodo-N-[(1S)-1-[2-(1-methyl-6-oxo-pyridazin-3-yl)-1,2,4-triazol-3-yl]ethyl]-5-(trifluoromethyl)benzamide]
≥ 80%: percent control (mortality, anti-feedant effect or growth inhibition) at 200 ppm (Spodoptera littoralis) | percent control (mortality or growth inhibition) at 200 ppm (Diabrotica balteata) | percent control (mortality, anti-feedant effect or growth inhibition) at 200 ppm (Chilo suppressalis) | percent effect (mortality or growth inhibition) at 200 ppm (Euschistus heros) | mortality at 12 ppm (Myzus persicae) | percent control (mortality or growth inhibition) at 200 ppm (Plutella xylostella)

C[C@H](NC(=O)c1cc(Cl)cc(OC(F)F)c1)c1ncnn1-c1ccc(=O)n(C)n1 [P37, 3-chloro-5-(difluoromethoxy)-N-[(1S)-1-[2-(1-methyl-6-oxo-pyridazin-3-yl)-1,2,4-triazol-3-yl]ethyl]benzamide]
≥ 80%: percent control (mortality or growth inhibition) at 200 ppm (Diabrotica balteata) | percent effect (mortality or growth inhibition) at 200 ppm (Euschistus heros) | mortality at 12 ppm (Myzus persicae) | percent control (mortality or growth inhibition) at 200 ppm (Plutella xylostella)

CC(NC(=O)c1cc(Br)nc(C2(C#N)CC2)c1)c1nccnc1-c1ccc(=O)n(C)n1 (stereo not shown) [P38, 2-bromo-6-(1-cyanocyclopropyl)-N-[1-[3-(1-methyl-6-oxo-pyridazin-3-yl)pyrazin-2-yl]ethyl]pyridine-4-carboxamide]
≥ 80%: percent control (mortality, anti-feedant effect or growth inhibition) at 200 ppm (Spodoptera littoralis) | percent control (mortality, anti-feedant effect or growth inhibition) at 200 ppm (Chilo suppressalis) | percent control (mortality or growth inhibition) at 200 ppm (Plutella xylostella)

C[C@H](NC(=O)c1cc(Br)nc(C2(C#N)CC2)c1)c1ncnn1-c1ccc(=O)n(C)n1 [P39, 2-bromo-6-(1-cyanocyclopropyl)-N-[(1S)-1-[2-(1-methyl-6-oxo-pyridazin-3-yl)-1,2,4-triazol-3-yl]ethyl]pyridine-4-carboxamide]
≥ 80%: percent effect (mortality or growth inhibition) at 200 ppm (Euschistus heros)

CC(NC(=O)c1cc(Cl)cc(C(F)F)c1)c1nccnc1-c1ccc(=O)n(C)n1 (stereo not shown) [P41, 3-chloro-5-(difluoromethyl)-N-[1-[3-(1-methyl-6-oxo-pyridazin-3-yl)pyrazin-2-yl]ethyl]benzamide]
≥ 80%: percent control (mortality, anti-feedant effect or growth inhibition) at 200 ppm (Spodoptera littoralis) | percent control (mortality or growth inhibition) at 200 ppm (Diabrotica balteata) | percent control (mortality, anti-feedant effect or growth inhibition) at 200 ppm (Chilo suppressalis) | mortality at 12 ppm (Myzus persicae) | percent control (mortality or growth inhibition) at 200 ppm (Plutella xylostella)

C[C@H](NC(=O)c1cc(Cl)cc(C(F)F)c1)c1ncnn1-c1ccc(=O)n(C)n1 [P42, 3-chloro-5-(difluoromethyl)-N-[(1S)-1-[2-(1-methyl-6-oxo-pyridazin-3-yl)-1,2,4-triazol-3-yl]ethyl]benzamide]
≥ 80%: percent control (mortality, anti-feedant effect or growth inhibition) at 200 ppm (Spodoptera littoralis) | percent control (mortality or growth inhibition) at 200 ppm (Diabrotica balteata) | percent effect (mortality or growth inhibition) at 200 ppm (Euschistus heros) | mortality at 12 ppm (Myzus persicae) | percent control (mortality or growth inhibition) at 200 ppm (Plutella xylostella)

CC(NC(=O)c1cc(Br)cc(C(F)(F)F)c1)c1nccnc1-c1cn(C)c(=O)cn1 (stereo not shown) [P48, 3-bromo-N-[1-[3-(4-methyl-5-oxo-pyrazin-2-yl)pyrazin-2-yl]ethyl]-5-(trifluoromethyl)benzamide]
≥ 80%: percent control (mortality, anti-feedant effect or growth inhibition) at 200 ppm (Spodoptera littoralis) | percent control (mortality or growth inhibition) at 200 ppm (Diabrotica balteata) | percent control (mortality, anti-feedant effect or growth inhibition) at 200 ppm (Chilo suppressalis) | mortality at 12 ppm (Myzus persicae) | percent control (mortality or growth inhibition) at 200 ppm (Plutella xylostella)
